The test system of assay [1] is Staphylococcus aureus. Nature of the assay: Antibacterial activity against Staphylococcus aureus ATCC 25923 assessed as inhibition of bacterial growth incubated for 16 hrs by microdilution method. The assay is classed as functional.
In assay [2] the test system is Staphylococcus aureus. Nature of the assay: Antibacterial activity against methicillin-resistant Staphylococcus aureus ATCC 33591 assessed as inhibition of bacterial growth incubated for 16 hrs by microdilution method. The assay is classed as functional. For orientation: Dilution methods test growth across graded concentrations, often in twofold steps.
For the next assay, the system named is Escherichia coli. Nature of the assay: Antibacterial activity against Escherichia coli ATCC 25922 assessed as inhibition of bacterial growth incubated for 16 hrs by microdilution method. The assay is classed as functional.
The test system of another assay is Enterococcus faecalis. Nature of the assay: Antibacterial activity against vancomycin-resistant Enterococcus faecalis 21-07 assessed as inhibition of bacterial growth incubated for 16 hrs by microdilution method. Format: functional.
The next assay has as its system Bacillus subtilis. Nature of the assay: Antibacterial activity against Bacillus subtilis ATCC 6633 assessed as inhibition of bacterial growth incubated for 16 hrs by microdilution method. Format: functional.
Another assay deals with Candida albicans. Nature of the assay: Antifungal activity against Candida albicans ATCC 10231 assessed as inhibition of fungal growth incubated for 16 hrs by microdilution method. The assay is classed as functional.
A further assay concerns HepG2. Nature of the assay: Cytotoxicity against human HepG2 cells assessed as reduction in cell viability incubated for 48 hrs by CCK8 assay. The assay is classed as functional, cell-based. Conditions: HepG2, 48 h. In general terms: Tetrazolium dyes change colour on reduction, which living cells bring about.
The next assay has as its system A549. Nature of the assay: Cytotoxicity against human A549 cells assessed as reduction in cell viability incubated for 48 hrs by CCK8 assay. Format: functional, cell-based. Conditions: A549, 48 h.
The test system of assay [3] is Staphylococcus epidermidis. Nature of the assay: Antibacterial activity against Staphylococcus epidermidis ATCC 12228 assessed as inhibition of bacterial growth incubated for 16 hrs by microdilution method. The assay is classed as functional.
The next assay relates to Pseudomonas aeruginosa. Nature of the assay: Antibacterial activity against Pseudomonas aeruginosa ATCC 27853 assessed as inhibition of bacterial growth incubated for 16 hrs by microdilution method. Format: functional.
The test system of assay [4] is Staphylococcus aureus. Nature of the assay: Antibacterial activity against Staphylococcus aureus ATCC 29213 assessed as inhibition of bacterial growth incubated for 16 hrs by microdilution method. The assay is classed as functional.

≈ marks a conversion by molar mass, not a printed value. Non-standard residues stand in square brackets, D forms with d. Residues, ends and D or L forms follow the SMILES beside them. Hyp = O=C(O)[C@@H]1C[C@@H](O)CN1; Phe(ol) = N[C@H](CO)Cc1ccccc1; Aib = CC(C)(N)C(=O)O

The MIC is the lowest concentration that inhibits growth of the organism. One may read the IC50 as the concentration at which inhibition is half-maximal. Consider `CC[C@@](C)(NC(=O)[C@H](CCC(N)=O)NC(=O)C(C)(C)NC(=O)[C@H](Cc1c[nH]c2ccccc12)NC(C)=O)C(=O)NCC(=O)NC(C)(C)C(=O)N[C@@H](C)C(=O)NC(C)(C)C(=O)NC(C)(C)C(=O)NCC(=O)N[C@@H](CCC(N)=O)C(=O)N[C@](C)(CC)C(=O)N1C[C@H](O)C[C@H]1C(=O)NC(C)(C)C(=O)N1CCC[C@H]1C(=O)N[C@H](CO)Cc1ccccc1`, for which the MIC in the assay with Staphylococcus aureus [1] is 64 mg/L (≈ 38.7 µM); in the assay on Staphylococcus aureus [2], 64 mg/L (≈ 38.7 µM); with Escherichia coli, more than 128 mg/L; in the assay with Enterococcus faecalis, more than 128 mg/L; in the assay with Bacillus subtilis it was 16 mg/L (≈ 9.67 µM); in the assay with Candida albicans it was 32 mg/L (≈ 19.3 µM). Moreover, the minimum inhibitory concentration (MIC) in assay [3] was more than 128 mg/L; in the assay with Pseudomonas aeruginosa, more than 128 mg/L; with Staphylococcus aureus [4], 64 mg/L (≈ 38.7 µM). Besides, the IC50 in the assay on HepG2 and in the assay with A549 was not below 50 µM throughout.
Take `CC(=O)N[C@@H](Cc1c[nH]c2ccccc12)C(=O)NC(C)(C)C(=O)N[C@@H](CCC(N)=O)C(=O)NC(C)(C)C(=O)NCC(=O)NC(C)(C)C(=O)N[C@@H](C)C(=O)NC(C)(C)C(=O)NC(C)(C)C(=O)NCC(=O)N[C@@H](CCC(N)=O)C(=O)NC(C)(C)C(=O)N1C[C@H](O)C[C@H]1C(=O)NC(C)(C)C(=O)N1CCC[C@H]1C(=O)N[C@H](CO)Cc1ccccc1` (Ac-W[Aib]Q[Aib]G[Aib]A[Aib][Aib]GQ[Aib][Hyp][Aib]P[Phe(ol)]): the MIC in the assay on Staphylococcus aureus [1], in the assay with Staphylococcus aureus [2], with Escherichia coli, with Enterococcus faecalis, in the assay with Bacillus subtilis and with Candida albicans was more than 128 mg/L in each case. The MIC (in assay [3]; in the assay on Pseudomonas aeruginosa; with Staphylococcus aureus [4]) was more than 128 mg/L each time. Moreover, the IC50 in the assay on HepG2 and with A549 was not below 50 µM each time.
On to `CC[C@@](C)(NC(=O)[C@H](CCC(N)=O)NC(=O)C(C)(C)NC(=O)[C@H](Cc1c[nH]c2ccccc12)NC(C)=O)C(=O)NCC(=O)NC(C)(C)C(=O)N[C@@H](C)C(=O)NC(C)(C)C(=O)NC(C)(C)C(=O)NCC(=O)N[C@@H](CCC(N)=O)C(=O)NC(C)(C)C(=O)N1C[C@H](O)C[C@H]1C(=O)NC(C)(C)C(=O)N1CCC[C@H]1C(=O)N[C@H](CO)Cc1ccccc1`, for which the MIC in the assay with Staphylococcus aureus [1] is more than 128 mg/L; in the assay on Staphylococcus aureus [2], more than 128 mg/L; in the assay on Escherichia coli, more than 128 mg/L; with Enterococcus faecalis, more than 128 mg/L; in the assay with Bacillus subtilis, 64 mg/L (≈ 39 µM); with Candida albicans, 64 mg/L (≈ 39 µM). In addition, the MIC (in assay [3]; in the assay with Pseudomonas aeruginosa; in the assay with Staphylococcus aureus [4]) was more than 128 mg/L each time. For the same compound, the IC50 with HepG2 and in the assay with A549 was not below 50 µM in each case.
As to `CC[C@@](C)(NC(=O)CNC(=O)[C@@](C)(CC)NC(=O)[C@H](CCC(N)=O)NC(=O)C(C)(C)NC(=O)[C@H](Cc1c[nH]c2ccccc12)NC(C)=O)C(=O)N[C@@H](C)C(=O)NC(C)(C)C(=O)NC(C)(C)C(=O)NCC(=O)N[C@@H](CCC(N)=O)C(=O)N[C@](C)(CC)C(=O)N1C[C@H](O)C[C@H]1C(=O)NC(C)(C)C(=O)N1CCC[C@H]1C(=O)N[C@H](CO)Cc1ccccc1`, the MIC in the assay on Staphylococcus aureus [1] is 64 mg/L (≈ 38.3 µM); in the assay on Staphylococcus aureus [2], 64 mg/L (≈ 38.3 µM); in the assay with Escherichia coli, more than 128 mg/L; with Enterococcus faecalis it was more than 128 mg/L; in the assay on Bacillus subtilis, 16 mg/L (≈ 9.59 µM); in the assay on Candida albicans it was 16 mg/L (≈ 9.59 µM). Besides, the MIC in assay [3] is more than 128 mg/L; in the assay on Pseudomonas aeruginosa, more than 128 mg/L; in the assay with Staphylococcus aureus [4], 32 mg/L (≈ 19.2 µM). Further, the IC50 with HepG2 and in the assay on A549 was not below 50 µM in each case.
With `CC(/C=C/[C@@]1(C)[C@H](C)CCC(=O)[C@@H]1C)=C\Cc1c(O)c(Cl)c(C)c(C=O)c1O` [ASCOCHLORIN], the MIC in the assay with Staphylococcus aureus [1] is 1 mg/L (≈ 2.47 µM); in the assay with Staphylococcus aureus [2] it was more than 128 mg/L; in the assay with Escherichia coli, more than 128 mg/L; in the assay on Enterococcus faecalis it was more than 128 mg/L; with Bacillus subtilis, 2 mg/L (≈ 4.94 µM); in the assay with Candida albicans it was 4 mg/L (≈ 9.88 µM). Besides, the MIC in assay [3] was 0.25 mg/L (≈ 0.617 µM); with Pseudomonas aeruginosa, more than 128 mg/L; in the assay on Staphylococcus aureus [4], 16 mg/L (≈ 39.5 µM). In addition, the IC50 in the assay on HepG2 and in the assay with A549 was 0.9 µM each time.
For the compound `CC[C@@](C)(NC(=O)CNC(=O)[C@@](C)(CC)NC(=O)[C@H](CCC(N)=O)NC(=O)C(C)(C)NC(=O)[C@H](Cc1c[nH]c2ccccc12)NC(C)=O)C(=O)N[C@@H](C)C(=O)NC(C)(C)C(=O)NC(C)(C)C(=O)NCC(=O)N[C@@H](CCC(N)=O)C(=O)NC(C)(C)C(=O)N1C[C@H](O)C[C@@H]1C(=O)NC(C)(C)C(=O)N1CCC[C@H]1C(=O)N[C@H](CO)Cc1ccccc1`, the MIC with Staphylococcus aureus [1] is more than 128 mg/L; in the assay with Staphylococcus aureus [2] it was more than 128 mg/L; in the assay on Escherichia coli, more than 128 mg/L; in the assay with Enterococcus faecalis, more than 128 mg/L; in the assay on Bacillus subtilis, more than 128 mg/L; in the assay with Candida albicans, 64 mg/L (≈ 38.7 µM). In addition, the MIC (in [3]; with Pseudomonas aeruginosa; in the assay on Staphylococcus aureus [4]) was more than 128 mg/L throughout. Moreover, the IC50 with HepG2 and in the assay on A549 was not below 50 µM each time.
On to COLISTIN, for which the MIC with Staphylococcus aureus [1] is 64 mg/L; in the assay on Staphylococcus aureus [2], 128 mg/L; in the assay on Escherichia coli, 1 mg/L; in the assay on Enterococcus faecalis, more than 128 mg/L; in the assay on Bacillus subtilis, 16 mg/L; in assay [3], 16 mg/L. Also, the MIC in the assay on Pseudomonas aeruginosa amounted to 1 mg/L; in the assay with Staphylococcus aureus [4] it was 128 mg/L.
On to `CC(/C=C/[C@@]1(C)[C@H](C)CC[C@@H](O)[C@@H]1C)=C\Cc1c(O)c(Cl)c(C)c(C=O)c1O`, for which the MIC with Staphylococcus aureus [1] was 16 mg/L (≈ 39.3 µM); with Staphylococcus aureus [2], more than 128 mg/L; in the assay with Escherichia coli, more than 128 mg/L; in the assay on Enterococcus faecalis it was more than 128 mg/L; in the assay on Bacillus subtilis it was 32 mg/L (≈ 78.6 µM); in the assay on Candida albicans it was more than 128 mg/L. Moreover, the MIC was 16 mg/L (≈ 39.3 µM) in [3], more than 128 mg/L with Pseudomonas aeruginosa and more than 128 mg/L with Staphylococcus aureus [4]. For the same compound, the IC50 with HepG2 and in the assay with A549 was 0.9 µM in each case.
With `CC[C@@](C)(NC(=O)[C@H](CCC(N)=O)NC(=O)CNC(=O)C(C)(C)NC(=O)C(C)(C)NC(=O)[C@H](C)NC(=O)C(C)(C)NC(=O)CNC(=O)C(C)(C)NC(=O)[C@H](CCC(N)=O)NC(=O)C(C)(C)NC(=O)[C@H](Cc1c[nH]c2ccccc12)NC(C)=O)C(=O)N1C[C@H](O)C[C@H]1C(=O)NC(C)(C)C(=O)N1CCC[C@H]1C(=O)N[C@H](CO)Cc1ccccc1`, the minimal inhibitory concentration (MIC) in the assay on Staphylococcus aureus [1] is 128 mg/L (≈ 78 µM); in the assay on Staphylococcus aureus [2] it was 128 mg/L (≈ 78 µM); with Escherichia coli it was more than 128 mg/L; in the assay on Enterococcus faecalis, more than 128 mg/L; in the assay with Bacillus subtilis, 32 mg/L (≈ 19.5 µM); in the assay with Candida albicans it was 64 mg/L (≈ 39 µM). The figures for the MIC (in assay [3]; with Pseudomonas aeruginosa; with Staphylococcus aureus [4]) were more than 128 mg/L, more than 128 mg/L and 128 mg/L (≈ 78 µM), respectively. The IC50 with HepG2 and with A549 was not below 50 µM throughout.
As to `CN[C@H](CC(C)C)C(=O)N[C@H]1C(=O)N[C@@H](CC(N)=O)C(=O)N[C@H]2C(=O)N[C@H]3C(=O)N[C@H](C(=O)N[C@H](C(=O)O)c4cc(O)cc(O)c4-c4cc3ccc4O)[C@H](O)c3ccc(c(Cl)c3)Oc3cc2cc(c3O[C@@H]2O[C@H](CO)[C@@H](O)[C@H](O)[C@H]2O[C@H]2C[C@](C)(N)[C@H](O)[C@H](C)O2)Oc2ccc(cc2Cl)[C@H]1O` [VANCOMYCIN], the MIC is more than 128 mg/L with Escherichia coli, 16 mg/L (≈ 11 µM) with Enterococcus faecalis, 0.125 mg/L (≈ 0.0863 µM) with Bacillus subtilis and more than 128 mg/L with Pseudomonas aeruginosa.
Regarding NYSTATIN, the MIC in the assay with Candida albicans was more than 128 mg/L.
`C/C(=C\Cc1c(O)c(Cl)c(C)c(C=O)c1O)CC/C=C(\C)[C@@H]1CC(=O)C(C)(C)O1` [ASCOFURANONE]: the MIC was 4 mg/L (≈ 9.5 µM) in the assay with Staphylococcus aureus [1]; 32 mg/L (≈ 76 µM) with Staphylococcus aureus [2]; more than 128 mg/L in the assay with Escherichia coli; more than 128 mg/L in the assay with Enterococcus faecalis; 16 mg/L (≈ 38 µM) in the assay on Bacillus subtilis; 32 mg/L (≈ 76 µM) in the assay on Candida albicans. Also, the figures for the MIC (in [3]; in the assay with Pseudomonas aeruginosa; in the assay on Staphylococcus aureus [4]) were 4 mg/L (≈ 9.5 µM), more than 128 mg/L and 16 mg/L (≈ 38 µM), respectively. For the same compound, the IC50 in the assay on HepG2 and with A549 was 0.9 µM in each case.
Regarding `C/C(=C\Cc1c(O)c(Cl)c(C)c(C=O)c1O)[C@H](O)C[C@@]1(C)[C@H](C)CCC(=O)[C@@H]1C`, the MIC with Staphylococcus aureus [1] was 128 mg/L (≈ 303 µM); with Staphylococcus aureus [2], more than 128 mg/L; in the assay with Escherichia coli, more than 128 mg/L; in the assay with Enterococcus faecalis it was more than 128 mg/L; in the assay with Bacillus subtilis, more than 128 mg/L; with Candida albicans, more than 128 mg/L. For the same compound, the MIC (in assay [3]; with Pseudomonas aeruginosa; in the assay on Staphylococcus aureus [4]) was more than 128 mg/L each time. Also, the IC50 with HepG2 and in the assay on A549 was 0.9 µM throughout.

The values are drawn from ChEMBL document CHEMBL4828776, “Acremopeptaibols A-F, 16-Residue Peptaibols from the Sponge-Derived Acremonium sp. IMB18-086 Cultivated with Heat-Killed Pseudomonas aeruginosa” (J Nat Prod, 2021).
